Values of other authors, collected in patent publication US8778914B2, “Bisphosphonate-prodrugs” (priority 2009, dated 2014).
Numbered stars: 1 amine (or outer) side, 2 acyl side, 3 side chain; on linkers, the order of the positions; unused ones are H or OH. Square brackets hold non-standard residues; d marks the D form. Side chains are listed from the residue outwards. Peptide text beside a SMILES is read from it. * marks the point of attachment. DAMPA = CN(Cc1cnc2nc(N)nc(N)c2n1)c1ccc(C(=O)*)cc1; Hexanoyl(6-maleimido) = O=C1C=CC(=O)N1CCCCCC(=O)*; γGlu = O=C(O)[C@H](CCC(=O)[*:2])N[*:1]

Tests used:
[1] = target: Cathepsin B (Homo sapiens, UniProt P07858); settings: releases (gamma-MTX); reported in A. Warnecke et al., Arch. Pharm. 2007
[2] = target: plasmin (Homo sapiens, UniProt P00747); settings: releases (gamma-MTX); reported in A. Warnecke et al., Arch. Pharm. 2007
[3] = pH 5.0; F. Kratz et al., J. Med. Chem. 2002

Sequence of plasmin (P00747 581-810 limits assumed, species assumed): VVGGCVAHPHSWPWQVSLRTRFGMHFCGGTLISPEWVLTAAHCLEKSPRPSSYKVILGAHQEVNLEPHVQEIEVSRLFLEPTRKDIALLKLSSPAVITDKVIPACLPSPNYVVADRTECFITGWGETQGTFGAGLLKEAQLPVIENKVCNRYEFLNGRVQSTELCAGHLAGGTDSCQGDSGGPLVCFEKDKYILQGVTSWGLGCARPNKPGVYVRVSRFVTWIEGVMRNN
Sequence of plasmin (P00747 97-580 partner limits assumed, species assumed): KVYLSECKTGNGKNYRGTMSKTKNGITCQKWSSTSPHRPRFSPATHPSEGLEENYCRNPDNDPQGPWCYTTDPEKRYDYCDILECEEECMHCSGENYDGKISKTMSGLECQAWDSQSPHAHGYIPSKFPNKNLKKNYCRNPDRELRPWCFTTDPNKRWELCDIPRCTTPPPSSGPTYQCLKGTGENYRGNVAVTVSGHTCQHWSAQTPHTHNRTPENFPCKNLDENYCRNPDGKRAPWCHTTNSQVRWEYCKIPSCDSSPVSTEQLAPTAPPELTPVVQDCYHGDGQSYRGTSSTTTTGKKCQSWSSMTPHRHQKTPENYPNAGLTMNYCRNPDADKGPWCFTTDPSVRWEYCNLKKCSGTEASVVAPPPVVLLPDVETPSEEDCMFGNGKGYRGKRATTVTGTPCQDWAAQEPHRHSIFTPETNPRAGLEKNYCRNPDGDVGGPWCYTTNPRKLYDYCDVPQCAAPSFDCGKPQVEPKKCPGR

For C[C@@H](NC(=O)CCCCCN1C(=O)C=CC1=O)C(=O)N[C@@H](Cc1ccccc1)C(=O)N[C@@H](CCCCN)C(=O)N[C@@H](CCCCNC(=O)CC[C@H](NC(=O)c1ccc(N(C)Cc2cnc3nc(N)nc(N)c3n2)cc1)C(=O)O)C(=O)O [EMC-D-Ala-Phe-Lys-Lys-(gamma-MTX)-OH] ({Hexanoyl(6-maleimido)}-[dA]FKK([γGlu-DAMPA])-OH), the “cleavage by Cathepsin B” value [1] is given as “cleaved between Lys-Lys” and the cleavage by plasmin [2] is given as “cleaved between Lys-Lys”.

For COc1cccc2c1C(=O)c1c(O)c3c(c(O)c1C2=O)C[C@@](O)(/C(CO)=N/NC(=O)CCCCCN1C(=O)C=CC1=O)C[C@@H]3O[C@H]1C[C@H](N)[C@H](O)[C@H](C)O1 [DOXO-EMCH, 6-maleimidocaproylhydazone derivative of doxorubicin], the “acid-sensitive cleavage, release of doxorubicin” value [3] is listed as “cleavable”.
